Assays:
[1] = system: A. citrulli M6; assay: In planta assay, A. citrulli-melon pathosystem; type: in vivo, melon (cv. AN-305); details: 200 ppm @[Cu], 10 ppm LAE; 5 days after inoculation
Excerpt: Assessment of the ability of the LAE @Cu composites to reduce disease: To assess the potential of LAE@Cu composites for management of bacterial plant diseases, we carried out experiments using the A. citrulli-melon pathosystem. In these experiments, the foliage of three-week-old plants of melon (cv. AN-305; Origene Seeds) were sprayed with LAE1.0@Cu composites at a concentration of 200 ppm. Additional treatments included spraying with 200 ppm of @Cu, 10 ppm of LAE (corresponding to the concentration of LAE in 200 ppm LAE×1.0@Cu) and the commercial bactericide Kocide, which was applied at the recommended concentration for management of the disease (2 mg/ml). As controls, foliage were sprayed with double distilled water (DDW). […] Disease severity of inoculated leaves was determined 5 days after inoculation, using the following scale: 0, no symptoms; 1, few minor lesions; 2, few small necrotic spots; 3, increased necrotic spots in less than 25% of the leaf area; 4, increased necrotic spots in 25 to 50% of the leaf area; and 5, increased necrotic spots in more than 50% of the leaf area and dead leaf. The data were statistically analyzed by one-way analysis of variance (ANOVA) and Tukey's honest significant difference (HSD) test.
In-planta assay: Melon plants (cv. AN-305; Origene Seeds) were grown in a growth chamber at 28° C. […] Disease severity was determined 5 days after inoculation.

[2] = system: A. citrulli M6; assay: Bactericidal (killing) activity of LAE@Cu composites in vitro; type: cell-based, Acidovorax citrulli; details: LAE at 1.25 ppm, 30 min
Experimental: Assessment of bactericidal activity of LAE @Cu composites in vitro: Bactericidal activity of LAE@Cu composites was tested by adding the composites to 50 ml-PBS suspensions containing ˜10^7 colony forming units (CFU)/ml of A. citrulli M6. The suspensions were incubated at 30° C. with shaking for 30 min. Then, the concentrations of viable bacteria were determined following plating of serial dilutions on nutrient agar (NA, Difco) plates.
Bacterial killing assay: The bactericidal (killing) activity of LAE@[Cu] composites at a concentration of 25 ppm (1.25 mg in 50 ml), were tested in PBS containing ˜107 (CFU)/mL. The suspensions were incubated at 30° C. with shaking for 30 min. Then, the viable bacteria were determined following plating of serial dilutions on NA (nutrient agar) plates. Controls included @[Cu], the composite-like compound without LAE, and the commercial bactericide, Kocide®, at the same concentrations.

With `CCCCCCCCCCCC(=O)N[C@@H](CCCN=C(N)N)C(=O)OCC` [LAE, Lauroyl arginate ethyl ester] the “reduction of disease severity as compared with non-treated controls” value [1] was 29% and the “reduction of the A. citrulli population” value [2] was 2 orders of magnitude.

From patent US20230256102A1, “COMPOSITES AND USES THEREOF” (YISSUM RESEARCH DEVELOPMENT COMPANY OF THE HEBREW …, priority 2019, published 2023)
